Measurements: PMC11818082, “2-{N-[ω-(1-Benzylpiperidin-4-yl)alkyl]amino}-6-[(prop-2-yn-1-yl)amino]pyridine-3,5-dicarbonitriles Showing High Affinity for σ1/2 Receptors” (International Journal of Molecular Sciences, 2025)
“And” between values parts separate entries of the source, which are not always exact repeats. Equal values may be shown once. Read-outs that look alike come from different tables or passages of the source.

Columns and labels:
[1] = molecular target: T1, human σ1R (Homo sapiens, UniProt Q99720); experiment: hσ1R competitive radioligand binding assay; settings: for Selectivity Index of Rat σ2R/Human σ1R: Ki rat σ2R/Ki hσ1R
T1 construct: expressed in transfected cells; host or cells: HEK293 (provided by Olivier Soriani, Université de Nice Sophia-Antipolis)
T1 sequence (Q99720 whole entry): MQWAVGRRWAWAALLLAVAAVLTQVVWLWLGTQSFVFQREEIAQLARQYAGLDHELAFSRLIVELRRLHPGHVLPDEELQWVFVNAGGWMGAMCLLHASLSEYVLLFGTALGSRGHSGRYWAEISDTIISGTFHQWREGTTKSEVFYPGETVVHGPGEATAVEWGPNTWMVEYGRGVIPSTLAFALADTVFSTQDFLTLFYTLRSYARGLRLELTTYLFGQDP
Procedure: The hσ1R competitive binding assay was performed as previously reported. In brief, radioligand competition experiments were performed using preparations from HEK293 cells stably transfected with human σ1R cells (provided by Olivier Soriani, Université de Nice Sophia-Antipolis, Nice, France). The binding of the σ1R specific radioligand (+)-[^3H]pentazocine (1.051 TBq/mmol; PerkinElmer LAS GmbH, Rodgay, Germany) was measured at equilibrium in the presence of the test compounds at different concentrations (10 mM stock solutions in DMSO; final concentrations 10^−5–10^−11 M, 0.1 % DMSO) in TRIS buffer at pH 7.4 (50 mM TRIS-HCl, 120 mM NaCl, 5 mM KCl, 2 mM CaCl2, 1 mM MgCl2). Total binding was measured without the addition of a competitor, and non-specific binding was measured with 10 µM haloperidol as the competitor. The vials were incubated at room temperature (rt) (~21 °C) at 300 rpm. The incubation was terminated after 60 min by vacuum filtration using Whatman® GF/B glass-fiber filtermats (#FPD-100, Brandel Inc., Gaithersburg, MD, USA), soaked with freshly prepared 0.3% polyethyleneimine, using a 48-well harvester (Brandel Inc., Gaithersburg, MD, USA). Filters were washed four times with cold buffer (50 mM TRIS-HCl, pH 7.4 at 4 °C) and placed in scintillation vials. In total, 3 mL of a liquid scintillation cocktail (Ultima Gold TM; PerkinElmer, Waltham, MA, USA) was filled in each vial, and the vials were shaken at rt at 375 rpm for 120 min. Filter-bound radioactivity was measured in a Hidex 600 SL liquid scintillation counter (Hidex, Turku, Finnland). By performing nonlinear regression analysis of the binding curves (GraphPad Prism 3.0, GraphPad Software, Inc., La Jolla, CA, USA), the IC50 values were obtained, and the equilibrium inhibition constants Ki were calculated according to the Cheng–Prusoff equation [36], using the in-house determined equilibrium dissociation constant KD of 33 nM (+)-[^3H]pentazocine. Each test compound was measured in 2–3 independent experiments, each performed in triplicate.

[2] = test system: eqBuChE; settings: cited from earlier work; for IC50: read-out: IC50 BuChE
[3] = test system: human MAO B; parameters: method as in earlier work; settings: cited from earlier work
[4] = test system: human MAO A; settings: cited from earlier work
[5] = molecular target: T2, rat σ2R (Rattus norvegicus, UniProt Q5U3Y7); experiment: σ2R competitive radioligand binding assay (rat liver membranes)
T2 construct: The thawed membrane preparation of rat liver (about 100 µg of protein) was incubated; from tissue; host or cells: rat liver membranes
T2 sequence (Q5U3Y7 1-176): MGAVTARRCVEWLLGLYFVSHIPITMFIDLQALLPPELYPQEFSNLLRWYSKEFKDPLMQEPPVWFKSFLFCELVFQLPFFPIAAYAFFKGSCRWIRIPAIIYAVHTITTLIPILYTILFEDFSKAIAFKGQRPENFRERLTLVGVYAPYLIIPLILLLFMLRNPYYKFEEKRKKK
Procedure: Two rat livers were cut into small pieces and homogenized using a potter [Elvehjem Potter (B. Braun Biotech International, Melsungen, Germany); 500–800 rpm, 10 up-and-down strokes] in 6 volumes of cold 0.32 M sucrose. The suspension was centrifuged at 1200× g for 10 min at 4 °C. The supernatant was separated and centrifuged at 31,000× g for 20 min at 4 °C. The pellet was resuspended in 5–6 volumes of buffer (50 mM TRIS, pH 8.0) and incubated at rt for 30 min. After the incubation, the suspension was centrifuged again at 31,000× g for 20 min at 4 °C. The final pellet was resuspended in 5–6 volumes of buffer and stored at −80 °C in 1.5 mL portions containing about 2 mg of protein/mL.
The stock solution of the respective test compound (10 mM in DMSO) was diluted with the assay buffer to obtain the required test solutions for the assay. All binding experiments were carried out in duplicates in 96-well multiplates. The concentrations given are the final concentrations in the assay. The assays were performed with the radioligand [^3H]-DTG (specific activity 50 Ci/mmol; ARC, St. Louis, MO, USA). The thawed membrane preparation of rat liver (about 100 µg of protein) was incubated with various concentrations of the test compound, 3 nM [^3H]-DTG, and a buffer containing (+)-pentazocine (500 nM (+)-pentazocine in 50 mM TRIS, pH 8.0) at rt. The non-specific binding was determined with 10 μM non-labeled DTG. The Kd value of [^3H]-DTG is 17.9 nM [43].
Generally, the assays were performed by adding 50 µL of the respective assay buffer and 50 µL of the test compound solution in various concentrations (10^−5, 10^−6, 10^−7, 10^−8, 10^−9, and 10^−10 mol/L), 50 µL of the corresponding radioligand solution, and 50 µL of the respective receptor preparation into each well of the multiplate (total volume 200 µL). The receptor preparation was added last. During the incubation, the multiplates were shaken at a speed of 500−600 rpm at rt. The assays were terminated after 120 min by rapid filtration using the harvester (MicroBeta FilterMate 96; PerkinElmer LAS, Rodgau, Germany) equipped with filtermats presoaked in 0.5% aqueous polyethylenimine solution for 2 h at rt before use. During the filtration, each well was washed five times with 300 µL of water. Subsequently, the filtermats were dried at 95 °C. The solid scintillator (Meltilex; PerkinElmer LAS, Rodgau, Germany) was melted on the dried filtermats at a temperature of 95 °C for 5 min. After solidifying the scintillator at rt, the trapped radioactivity in the filtermats was measured with the scintillation analyzer (MicroBeta Trilux; PerkinElmer LAS, Rodgau, Germany). Each position on the filtermat corresponds to one well of the multiplate and was measured for 5 min with the [^3H]-counting protocol. The overall counting efficiency was 20%. The IC50 values were calculated with the program GraphPad Prism® 3.0 (GraphPad Software, San Diego, CA, USA) by nonlinear regression analysis. Subsequently, the IC50 values were transformed into Ki values using the equation of Cheng and Prusoff. The Ki values are given as the mean value ± SEM from three independent experiments.

[6] = test system: EeAChE; settings: cited from earlier work
[7] = molecular target: gpσ1R (Cavia porcellus, UniProt Q60492); experiment: gpσ1R affinity; type: binding
Sequence of gpσ1R (Q60492 whole entry): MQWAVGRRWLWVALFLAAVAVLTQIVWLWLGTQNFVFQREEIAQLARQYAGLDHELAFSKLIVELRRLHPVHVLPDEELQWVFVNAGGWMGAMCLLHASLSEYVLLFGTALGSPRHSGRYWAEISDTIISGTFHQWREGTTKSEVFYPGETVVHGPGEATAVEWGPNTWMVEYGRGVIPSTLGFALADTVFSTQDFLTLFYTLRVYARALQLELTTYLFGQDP

[8] = membrane preparations of HEK-293 cells stably transfected with hσ1R, radioligand (+)-[3H]pentazocine, two experiments: mean (individual values), three or more: mean ± SD, read-out: Ki Human σ1R
[9] = rat liver membrane preparations, radioligand [3H]ditolylguanidine, (+)-pentazocine to mask σ1R, mean ± SEM, read-out: Ki Rat σ2R

C#CCN(C)c1nc(NCC2CCN(Cc3ccccc3)CC2)c(C#N)c(-c2ccccc2)c1C#N [Compound 11, 2-{[(1-benzylpiperidin-4-yl)methyl]amino}-6-[methyl(prop-2-yn-1-yl)amino]-4-phenylpyridine-3,5-dicarbonitrile]
Ki [1]: 119 nM
Selectivity Index of Rat σ2R/Human σ1R [1]: 0.46
IC50 ([2]; eqBuChE): 5000 ± 700 nM
IC50 MAO B [3]: n.i.
IC50 MAO A [4]: n.i.
Ki [5]: 55 nM
fold more affine for rat σ2R than for hσ1R ([5]; Ki hσ1R vs Ki rat σ2R): 2 fold
IC50 [6]: 270 ± 52 nM

C#CCNc1nc(NCCC2CCN(Cc3ccccc3)CC2)c(C#N)cc1C#N [Compound 2]
Ki [1]: 7.57 ± 0.59 nM
Selectivity Index of Rat σ2R/Human σ1R [1]: 5.6
IC50 BuChE ([2]; eqBuChE): n.i.
IC50 MAO B [3]: n.i.
IC50 MAO A [4]: n.i.
Ki [5]: 42 ± 8 nM
IC50 [6]: 16 ± 2 nM

C#CCNc1nc(NCCCCC2CCN(Cc3ccccc3)CC2)c(C#N)cc1C#N [Compound 4]
Selectivity Index of Rat σ2R/Human σ1R [1]: 41
Ki [1, 8]: 3.97 ± 0.66 nM
IC50 ([2]; eqBuChE): 530 ± 60 nM
IC50 MAO B [3]: n.i.
IC50 MAO A [4]: n.i.
Ki [5, 9]: 163 ± 50 nM
IC50 [6]: 1.3 ± 0.3 nM

C#CCNc1nc(NC2CCN(Cc3ccccc3)CC2)c(C#N)cc1C#N [Compound 1]
Ki [1]: 29.2 nM
Selectivity Index of Rat σ2R/Human σ1R [1]: 5.9
IC50 BuChE ([2]; eqBuChE): n.i.
IC50 MAO B [3]: n.i.
IC50 MAO A [4]: n.i.
Ki [5]: 173 nM
IC50 [6]: 530 ± 70 nM

C#CCN(C)c1nc(NCCCC2CCN(Cc3ccccc3)CC2)c(C#N)cc1C#N [Compound 6]
Ki [1]: ~3 nM and 3.05 nM
Selectivity Index of Rat σ2R/Human σ1R [1]: 42
IC50 ([2]; eqBuChE): 1120 ± 160 nM
IC50 MAO B [3]: n.i.
IC50 [4]: 6.11 ± 1.4 µM
Ki [5]: 129 ± 26 nM
IC50 [6]: 6.2 ± 1.4 nM

C#CCN(C)c1nc(NCCCCC2CCN(Cc3ccccc3)CC2)c(C#N)cc1C#N [Compound 7]
Ki [1, 8]: ~3 nM and 3.09 nM
IC50 ([2]; eqBuChE): 600 ± 80 nM
IC50 MAO B [3]: n.i.
Ki [5, 9]: 288 nM
IC50 [6]: 1.1 ± 0.3 nM

C#CCNc1nc(NCCCC2CCN(Cc3ccccc3)CC2)c(C#N)cc1C#N [Compound 3]
Ki [1]: ~3 nM and 2.97 nM
Selectivity Index of Rat σ2R/Human σ1R [1]: 13
IC50 ([2]; eqBuChE): 2030 ± 370 nM
IC50 MAO B [3]: n.i.
IC50 MAO A [4]: n.i.
Ki [5]: 37 ± 5 nM
IC50 [6]: 4.7 ± 0.5 nM

C#CCNc1nc(NC2CCN(Cc3ccccc3)CC2)c(C#N)c(-c2ccccc2)c1C#N [Compound 8]
Ki [1]: 27.3 nM
Selectivity Index of Rat σ2R/Human σ1R [1]: 5.2
IC50 BuChE ([2]; eqBuChE): n.i.
IC50 MAO B [3]: n.i.
IC50 [4]: 0.025 ± 0.001 µM
Ki [5]: 141 nM
IC50 [6]: 4000 ± 100 nM

C#CCNc1nc(NCCCCC2CCN(Cc3ccccc3)CC2)c(C#N)c(-c2ccccc2)c1C#N [Compound 10]
Selectivity Index of Rat σ2R/Human σ1R [1]: 2.5
Ki [1, 8]: 15.4 nM
IC50 ([2]; eqBuChE): 840 ± 100 nM
IC50 MAO B [3]: n.i.
IC50 MAO A [4]: n.i.
Ki [5, 9]: 39 nM
IC50 [6]: 1.7 ± 0.3 nM

C#CCN(C)c1nc(NCCC2CCN(Cc3ccccc3)CC2)c(C#N)cc1C#N [Compound 5, 2-{[2-(1-benzylpiperidin-4-yl)ethyl]amino}-6-[methyl(prop-2-yn-1-yl)amino]pyridine-3,5-dicarbonitrile]
Ki [1]: 1.45 ± 0.43 nM
Selectivity Index of Rat σ2R/Human σ1R [1]: 270
fold higher affinity for hσ1R than the standards NE-100 and PB2 ([1]; compared with the standards): ~1.3 fold
IC50 ([2]; as given in the text): 3100 nM
IC50 MAO B [3]: n.i.
IC50 MAO A [4]: n.i.
Ki [7]: 2.9 nM
Ki [5]: 389 nM
IC50 [6]: 13 nM

C#CCN(C)c1nc(NCCCC2CCN(Cc3ccccc3)CC2)c(C#N)c(-c2ccccc2)c1C#N [Compound 12]
Ki [1]: 10.9 ± 1.9 nM
Selectivity Index of Rat σ2R/Human σ1R [1]: 36
IC50 ([2]; eqBuChE): 230 ± 30 nM
IC50 MAO B [3]: n.i.
IC50 MAO A [4]: n.i.
Ki [5]: 393 nM
IC50 [6]: 14 ± 1 nM

C#CCNc1nc(NCCCC2CCN(Cc3ccccc3)CC2)c(C#N)c(-c2ccccc2)c1C#N [Compound 9]
Ki [1]: 7.45 ± 4.32 nM
Selectivity Index of Rat σ2R/Human σ1R [1]: 14
IC50 BuChE ([2]; eqBuChE): n.i.
IC50 MAO B [3]: n.i.
IC50 MAO A [4]: n.i.
Ki [5]: 104 ± 22 nM
IC50 [6]: 19 ± 5 nM
